# Results published in paper PMC9127493 (Signal Transduction and Targeted Therapy, 2022).
# pEC50, pKd: −log10 of the molar value. Where two headings read alike, the source gives them in different places.
# How the values were obtained:
# 293T-ACE2iRb3 cells = test: Visualization of SARS-CoV-2 cell entry with STG probe; assay type: cell-based, human; conditions: pretreated with 2 μM for 1 h, 3 h post STG incubation
# Procedure: Visulization of SARS-CoV-2 cell entry
# To visualize the effect of drugs on viral entry, 293T-ACE2iRb3 cells were pretreated with serially diluted drugs for 1 h before STG probes addition for further incubation. Cell images shown in Fig 1e were acquired using a 100× oil immersion objective. The data shown in Fig S3 was derived from images acquired on Opera Phenix using 40× water immersion objective. For images of Fig 1e, cells were gently washed twice with PBS after 3 h incubation with STG, following a paraformaldehyde fixation before imaging. Cell images involved in Fig S3 were obtained under wash-free and live-cell conditions. The construction of STG probe used here and the image quantitative analysis were performed as previously described^1.
# All drugs were tested in a 3-fold dilution series and the initial drug concentration was 15 μM. Three and five replicate wells were performed for the DMSO and drug groups, respectively. 25 fields of each well were imaged for quantitative analyses after 3 h incubation with STG-probe.
# Vero E6 cells = test: Morphological observations, cytoplasmic vacuolization; assay type: cell-based, African green monkey; conditions: for induction of cytoplasmic vacuoles: Vero E6 cells, 5 μM, 8 h
# Procedure: Morphological observations
# Cells were seeded into 96-well plates and treated with test drugs for indicated time periods. Pictures of cells were subsequently obtained using Biotek Cytation-5&BioSpa8.
# [1] = Antiproliferation (MTS) assay, cytotoxicity; assay type: cell-based; conditions: African green monkey, Vero E6 cells
# Procedure: (§1) Cell viability was determined using MTS (Promega, Madison, WI, USA), according to the manufacturer’ s instructions. The absorbance was measured in Varioskan Flash (Thermo) at 490 nm. Data were normalized to the control group (DMSO). CC50 values were calculated by concentration-response curve-fitting using GraphPad Prism.
# SARS-CoV-2 [2] = test: Cytopathic effect (CPE) inhibition assay in Vero E6 cells; assay type: cell-based; conditions: wild-type SARS-CoV-2, MOI = 0.1, 48 h
# [3] = parameters: method as in PMID 31628917; conditions: patients with Crohn’s disease and rheumatoid arthritis; cited from earlier work
# [4] = Cytotoxicity of drugs used in pseudovirus experiments (MTS); assay type: cell-based; conditions: human; 293T-hACE2 cells, MTS assay at 48 hours, n = 3
# Procedure: as §1, with “Cells were seeded into 96-well plates and exposed to serially diluted drugs for 48 h. Cell” for “Cell”
# 293T-hACE2 cells were treated with serially diluted drugs and cytotoxicity was determined by MTS assay at 48 hours (n = 3).
# [5] = tested on: SARS-CoV-2 wild-type isolate XM088T; test: Antiviral efficacy assay, qRT-PCR of virus released in supernatants; assay type: cell-based; conditions: MOI of 0.05, pretreated 2 h, qRT-PCR at 48 h p.i., n = 3
# SARS-CoV-2 [6] = test: Time-of-addition experiment; assay type: cell-based; conditions: Vero E6 cells, qRT-PCR at 24 h p.i. and nucleoprotein Western blot
# Procedure: Time-of-addition experiment
# Vero E6 cells were plated into 6-well plates and grew overnight. During “Full-time” treatment, cells were first treated with drug for two hours, and then infected with the virus for two hours. After that, the mixed supernatant was removed and cells were washed twice with PBS and finally cultured in fresh medium containing the same concentration of drug. For “Entry” treatment, pre-treatment and infection operations were similar to that in “Full-time” treatment. However, cells were cultured in drug-free medium after the mixed supernatant removed. As for “Post-entry” treatment, cells were infected with virus for 2 h before treated with drug for 2 h. Then the mixture was removed and fresh medium containing drug was added after cells were washed with PBS. The DMSO-control group was treated in the same way as “Full-time” group. For quantitative PCR, the MOI was controlled at 0.05 and supernatant was harvest at 24 h post infection. While for western blot, MOI was controlled at 0.30 and cells were harvest at 72 h post infection to identify the virus protein expression.
# cathepsin B = test: Cathepsin B activation, Western blot; assay type: cell-based, human; conditions: A549 cells, time- and dose-dependent
# PIKfyve = molecular target: T1, PIKfyve (Homo sapiens, UniProt Q9Y2I7); test: KINOMEscan competitive binding assay, Kds determination
# T1 construct: purchased Eurofins DiscoverX Corporation (KINOMEscan service); host or cells: HEK-293
# Text: KINOMEscan technology is a competitive affinity-based binding assay provided by Eurofins DiscoverX Corporation^3. Briefly, kinases were produced in HEK-293 cells and tagged with DNA for qPCR detection. Affinity resins were generated by treating streptavidin-coated magnetic beads with biotinylated small molecule ligands. For binding assays, the liganded beads were combined with DNA-tagged kinases and the test compounds. DMSO was used as a control. Compounds that bind to the DNA-tagged kinases will prevent these kinases binding with immobilized ligands and reduce the amount of the corresponding kinases captured on solid support. Kds were determined using 11 serial threefold dilutions of the test compounds and a DMSO control.
# Supplementary Figure S1. The equilibrium dissociation constant (Kd) for XMU-MP-7 with PIKfyve was determined from 2 independent titration curves.
# [7] = Pharmacokinetics after single intravenous and oral administration; assay type: in vivo; conditions: Sprague Dawley, plasma, rat; for MRT inf: read-out: MRT(0-∞)
# Procedure: The pharmacokinetics of XMU-MP-7 were determined following single intravenous and oral administration in Sprague Dawley rat (N = 3/each) at the dose indicated. Blood samples were collected at 0.08, 0.25, 0.5, 1, 2, 4, 8 & 24 hr (IV) & 0.25, 0.5, 1, 2, 4, 6, 8 & 24 hr (PO) post dose. Then the samples were quantified by LC-MS/MS, and data analysis was conducted using WinNonlin V6.3. IV = intravenous injection, PO = oral delivery, Tmax = time of maximum plasma concentration, Cmax = maximum plasma concentration, AUC = area under the curve (measure of exposure), T1/2 = half life, Cl = plasma clearance, Vd = volume of distribution, F = oral bioavailability.
# [8] = Severe acute respiratory syndrome coronavirus 2, Vero C1008, Vero E6 cells
# T1 sequence (Q9Y2I7 whole entry): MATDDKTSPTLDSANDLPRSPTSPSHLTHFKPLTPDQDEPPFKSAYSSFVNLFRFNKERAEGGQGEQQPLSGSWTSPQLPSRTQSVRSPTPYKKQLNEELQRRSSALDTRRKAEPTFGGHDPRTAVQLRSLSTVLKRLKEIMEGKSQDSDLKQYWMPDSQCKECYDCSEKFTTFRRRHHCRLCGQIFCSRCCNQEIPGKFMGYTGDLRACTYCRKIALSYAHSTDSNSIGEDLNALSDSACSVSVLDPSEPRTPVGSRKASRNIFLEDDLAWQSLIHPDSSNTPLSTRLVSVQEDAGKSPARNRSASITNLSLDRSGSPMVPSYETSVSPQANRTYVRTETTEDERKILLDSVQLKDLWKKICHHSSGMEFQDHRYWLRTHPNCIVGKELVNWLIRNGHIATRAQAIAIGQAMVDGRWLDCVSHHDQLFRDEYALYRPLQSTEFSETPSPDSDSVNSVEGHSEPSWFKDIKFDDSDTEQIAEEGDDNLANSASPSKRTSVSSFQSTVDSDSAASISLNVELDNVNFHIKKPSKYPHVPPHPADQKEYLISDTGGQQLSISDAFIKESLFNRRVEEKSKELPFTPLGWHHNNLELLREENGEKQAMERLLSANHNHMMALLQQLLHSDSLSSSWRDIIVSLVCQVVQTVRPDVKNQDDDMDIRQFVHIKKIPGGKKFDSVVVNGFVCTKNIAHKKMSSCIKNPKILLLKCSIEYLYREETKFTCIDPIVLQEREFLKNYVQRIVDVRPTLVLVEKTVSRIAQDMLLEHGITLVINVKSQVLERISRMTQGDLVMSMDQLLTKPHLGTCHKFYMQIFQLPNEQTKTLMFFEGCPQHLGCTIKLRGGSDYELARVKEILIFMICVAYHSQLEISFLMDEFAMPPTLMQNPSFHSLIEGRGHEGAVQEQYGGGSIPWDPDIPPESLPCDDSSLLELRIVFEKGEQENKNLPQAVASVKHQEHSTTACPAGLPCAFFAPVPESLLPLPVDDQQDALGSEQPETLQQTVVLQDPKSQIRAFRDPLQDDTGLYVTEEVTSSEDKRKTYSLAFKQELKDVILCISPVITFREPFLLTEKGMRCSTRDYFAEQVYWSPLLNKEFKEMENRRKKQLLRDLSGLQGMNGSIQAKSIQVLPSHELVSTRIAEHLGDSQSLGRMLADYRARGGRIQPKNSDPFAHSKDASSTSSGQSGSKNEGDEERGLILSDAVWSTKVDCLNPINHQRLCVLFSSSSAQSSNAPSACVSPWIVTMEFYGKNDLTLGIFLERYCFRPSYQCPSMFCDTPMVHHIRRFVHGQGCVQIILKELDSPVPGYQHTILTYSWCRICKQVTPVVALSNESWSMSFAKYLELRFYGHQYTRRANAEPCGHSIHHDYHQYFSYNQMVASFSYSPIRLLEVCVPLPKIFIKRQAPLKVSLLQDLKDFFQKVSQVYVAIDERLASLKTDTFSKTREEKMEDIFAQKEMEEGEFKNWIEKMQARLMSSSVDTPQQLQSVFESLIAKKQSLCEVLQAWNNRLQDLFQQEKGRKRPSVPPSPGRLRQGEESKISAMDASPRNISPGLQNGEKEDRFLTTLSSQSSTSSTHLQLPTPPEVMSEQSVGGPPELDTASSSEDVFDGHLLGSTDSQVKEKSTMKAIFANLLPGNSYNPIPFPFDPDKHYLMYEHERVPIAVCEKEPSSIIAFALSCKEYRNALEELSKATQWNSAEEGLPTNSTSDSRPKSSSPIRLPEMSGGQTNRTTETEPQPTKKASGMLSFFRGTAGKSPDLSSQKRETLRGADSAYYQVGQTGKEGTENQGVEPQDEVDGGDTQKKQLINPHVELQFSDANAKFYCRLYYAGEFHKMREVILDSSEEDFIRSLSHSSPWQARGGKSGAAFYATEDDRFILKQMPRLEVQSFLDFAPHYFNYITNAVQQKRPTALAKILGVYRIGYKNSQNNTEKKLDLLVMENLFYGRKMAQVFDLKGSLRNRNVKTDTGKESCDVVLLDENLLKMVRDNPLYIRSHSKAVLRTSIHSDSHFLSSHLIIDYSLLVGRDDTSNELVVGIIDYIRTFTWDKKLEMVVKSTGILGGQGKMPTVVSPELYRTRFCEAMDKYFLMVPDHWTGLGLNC
SMILES,STG probe internalization (confocal images) (293T-ACE2iRb3 cells),time to visible cytoplasmic vacuoles (Vero E6 cells),induction of cytoplasmic vacuoles (Vero E6 cells),"CC50 at 48 h ([1]; 48 h, n = 3)",rescue of cytopathic effect (SARS-CoV-2 [2]),CC50 at 48 h [4],"pEC50 [5, 8]",stage of infection at which the drug acts (SARS-CoV-2 [6]),pKd (PIKfyve),also measured
Cc1cccc(/C=N/Nc2cc(N3CCOCC3)nc(OCCc3ccccn3)n2)c1 [Apilimod],almost completely trapped on the enlarged cytoplasmic vacuoles,less than 20 min,induced cytoplasmic vacuoles,41.8 µM,significantly rescued the cytopathic effects,> 10 µM,> 8.16,,,bioavailability [3]: poor bioavailability; plasma concentration [3]: unexpected low plasma concentration
CCN(CC)CCCC(C)Nc1ccnc2cc(Cl)ccc12 (stereo not drawn) [Chloroquine],,,,54.8 µM,,,6.26,,,pEC50 ([5]; Vero E6 cells): ~6.30
CC(C)(C)[C@H](NC(=O)C(F)(F)F)C(=O)N1C[C@H]2[C@@H]([C@H]1C(=O)N[C@H](C#N)C[C@@H]1CCNC1=O)C2(C)C [PF-07321332],,,,,,,,,,"pEC50 ([5]; Vero E6 cells, read-out: EC50): 6.31"
CCC(CC)COC(=O)[C@H](C)N[P@](=O)(OC[C@H]1O[C@@](C#N)(c2ccc3c(N)ncnn23)[C@H](O)[C@@H]1O)Oc1ccccc1 [Remdesivir],STG entered the cytoplasm,,,> 150 µM,,,5.78,only exerted an inhibitory effect at post-entry stage,,
COc1ccc(C(=O)Nc2cccc(C(F)(F)F)c2)cc1Nc1nc(-c2cccnc2)c2[nH]ccc2n1 [XMU-MP-7],almost completely trapped on the enlarged cytoplasmic vacuoles,less than 20 min,dramatically induced cytoplasmic vacuoles,,significantly rescued the cytopathic effects,> 10 µM,8.03,potent antiviral roles at both entry and post-entry stages,8.19,"maturation of active cathepsin B (cathepsin B): impaired the maturation of active cathepsin B; CC50 at 48 h [1]: > 150 µM; AUC(0-inf) ([7]; IV, 2 mg/kg): 4250 ng·h/mL; AUC(0-t) ([7]; IV, 2 mg/kg): 4250 ng·h/mL; C0 ([7]; IV, 2 mg/kg): 14000 ng/mL; Tmax ([7]; IV, 2 mg/kg): 0.08 h; Vd ([7]; IV, 2 mg/kg): 0.2 L/kg; clearance ([7]; IV, 2 mg/kg): 7.88 mL/min/kg; half-life ([7]; IV, 2 mg/kg): 36.5 min; MRT inf ([7]; IV, 2 mg/kg): 0.429 h; AUC(0-inf) ([7]; PO, 10 mg/kg): 2210 ng·h/mL; AUC(0-t) ([7]; PO, 10 mg/kg): 2200 ng·h/mL; Cmax ([7]; PO, 10 mg/kg): 429 ng/mL; Tmax ([7]; PO, 10 mg/kg): 2.33 h; half-life ([7]; PO, 10 mg/kg): 184 min; bioavailability ([7]; PO, 10 mg/kg, read-out: F (oral bioavailability)): 10.4%; MRT inf ([7]; PO, 10 mg/kg): 3.81 h"
Cc1ccc(NC(=O)c2cccc(C(F)(F)F)c2)cc1Nc1nc(-c2ccncc2)c2[nH]ccc2n1 [cmpd 24],STG entered the cytoplasm,,could not induce visible vacuoles,51.7 µM,,> 10 µM,4.91,,< 4.52,
